Laboratory results reported in article PMC11145868, “Protein target similarity is positive predictor of in vitro antipathogenic activity: a drug repurposing strategy for Plasmodium falciparum” (Journal of Cheminformatics, 2024).
Where a name gives a salt, the structure may show the parent alone. Read-outs that look alike come from different tables or passages of the source.

Experiments:
[1] = system: P. berghei-luciferase sporozoites; assay: microbe, parasite or virus in culture; format: cell-based, Plasmodium berghei; conditions: read-out: Liver stage 48h EC50
[2] = Mammalian cell cytotoxicity assay, HEK293T (CellTiter-Glo, 72 h); conditions: human, HEK293T cells
P. falciparum Dd2-HLH [3] = assay: microbe, parasite or virus in culture; format: cell-based, Plasmodium falciparum; conditions: read-out: Blood stage 72h EC50
P. falciparum Dd2-HLH [4] = assay: microbe, parasite or virus in culture; format: cell-based, Plasmodium falciparum
[5] = Plasmodium berghei, HepG2, liver-stage parasites, 48 hours in culture
[6] = Plasmodium falciparum, DD2, 72 h
[7] = Plasmodium falciparum, DD2, 48 h, read-out: Blood stage 48h EC50
[8] = liver-stage parasites, 48 hours in culture
[9] = P. falciparum blood-stage parasites, 72 hours in culture
[10] = P. falciparum blood-stage parasites, 48 hours in culture, read-out: Blood stage 48h EC50

Compound | EC50 [1, 5] [nM] | CC50 at 72 h [2] [nM] | EC50 (P. falciparum Dd2-HLH [3]; [6]) [nM] | EC50 (P. falciparum Dd2-HLH [4]; [7]) [nM] | EC50 [1, 8] [nM] | EC50 (P. falciparum Dd2-HLH [3]; [9]) [nM] | EC50 (P. falciparum Dd2-HLH [4]; [10]) [nM] | EC50 (P. falciparum Dd2-HLH [4]; Plasmodium falciparum, DD2, read-out: EC50 (antiplasmodial, quoted in discussion from Supplementary Table 1)) [nM] | EC50 (P. falciparum Dd2-HLH [4]; Plasmodium falciparum, DD2, Hec50, 48 h, read-out: Blood stage 48 h EC50) [nM] | EC50 ([1]; Plasmodium berghei, HepG2, 48 h) [nM]
FC(F)c1nc2ccccc2n1-c1nc(N2CCOCC2)nc(N2CCOCC2)n1 [ZSTK-474] | 973 | 762 | 841 | 238 | – | – | – | – | – | –
CC[C@H](NC(=O)[C@H](C)NC)C(=O)N1C[C@@H](O)C[C@H]1Cc1c(-c2[nH]c3cc(F)ccc3c2C[C@@H]2C[C@H](O)CN2C(=O)[C@H](CC)NC(=O)[C@H](C)NC)[nH]c2cc(F)ccc12 [Birin/apant] | > 10000 | > 9950 | 603 | 190 | – | – | – | – | – | –
CC(C)c1cc(CNc2nc(Nc3cc(C4CC4)[nH]n3)cc(N3CCN(C)CC3)n2)on1 [XL-228] | – | 537 | 621 | 56 | – | – | – | – | – | –
COc1ccc(C[C@H]2NC[C@H](O)[C@H]2OC(C)=O)cc1 [Anisomycin] | – | – | – | – | 266 | 61 | 44 | – | – | –
Cc1ccc(C(=O)Nc2ccc(CN3CCN(C)CC3)c(C(F)(F)F)c2)cc1C#Cc1cnc2cccnn12 [Pon/atinib] | 241 | – | 555 | 294 | – | – | – | – | – | –
COC(=O)C[C@](O)(CCC(C)(C)O)C(=O)O[C@@H]1C(OC)=C[C@]23CCCN2CCc2cc4c(cc2[C@H]13)OCO4 [harringtonine, reference compound] | 29 | – | 43 | 24 | – | – | – | 6.1 | – | –
CCC1=C[C@@H]2CN(C1)Cc1c([nH]c3ccccc13)[C@@](C(=O)OC)(c1cc3c(cc1OC)N(C)[C@H]1[C@@](O)(C(=O)OC)[C@H](OC(C)=O)[C@]4(CC)C=CCN5CC[C@]31[C@@H]54)C2 [Vinorelbine] | – | 2980 | 809 | 171 | – | – | – | – | – | –
CN1CCN(C2CCN(C(=O)Nc3cc(Oc4ccc(NC(=O)C5(C(=O)Nc6ccc(F)cc6)CC5)c(F)c4)ccn3)CC2)CC1 [Golvatinib] | 2840 | 4360 | 1020 | 738 | – | – | – | – | – | –
O=C1c2c(O)ccc(O)c2C(=O)c2c(NCCNCCO)ccc(NCCNCCO)c21 [Mitoxantrone] | 1720 | 217 | 357 | 239 | – | – | – | – | – | –
CCN(CC)CCN(Cc1ccc(-c2ccc(C(F)(F)F)cc2)cc1)C(=O)Cn1c(SCc2ccc(F)cc2)nc(=O)c2c1CCC2 [Darapladib] | 2880 | 1730 | 850 | 515 | – | – | – | – | – | –
CC(C)n1nc(-c2ccc3oc(N)nc3c2)c2c(N)ncnc21 [Sapanisertib] | 665 | 102 | 305 | 187 | – | – | – | – | – | –
COc1cc2ncnc(Nc3ccc(F)c(Cl)c3)c2cc1NC(=O)/C=C/CN1CCCCC1 [Dacomitinib] | 596 | 2620 | 953 | 540 | – | – | – | – | – | –
CCc1cc2c(cc1CC)CC(NC[C@H](O)c1ccc(O)c3[nH]c(=O)ccc13)C2 [Indacaterol maleate] | 3110 | > 9950 | 951 | 682 | – | – | – | – | – | –
CC[C@H](C(=O)N1CCCC[C@H]1C(=O)O[C@H](CCc1ccc(OC)c(OC)c1)c1cccc(OCC(=O)NCCNC(=O)COc2cccc([C@@H](CCc3ccc(OC)c(OC)c3)OC(=O)[C@@H]3CCCCN3C(=O)[C@@H](CC)c3cc(OC)c(OC)c(OC)c3)c2)c1)c1cc(OC)c(OC)c(OC)c1 [Rimiducid] | > 10000 | > 9950 | 411 | 59 | – | – | – | – | – | –
CN(C)c1ccc2nc3ccc(=[N+](C)C)cc-3sc2c1 [Methylthioninium Chloride] | 1050 | 1770 | 118 | 67 | – | – | – | – | – | –
O=C(CCCCCCNC(=O)c1cnc(N(c2ccccc2)c2ccccc2)nc1)NO [Ricolinostat] | 4370 | > 9950 | 770 | 555 | – | – | – | – | – | –
CC(C)(C)NC[C@H](O)COc1ccccc1C1CCCC1 [Penbutolol] | 20000 | > 9950 | 980 | 418 | – | – | – | – | – | –
OC1(c2ccc(Cl)c(C(F)(F)F)c2)CCN(CCCC(c2ccc(F)cc2)c2ccc(F)cc2)CC1 [Penfluridol] | 3170 | 1900 | 524 | 218 | – | – | – | – | – | –
COC(=O)[C@@]12OC[C@]34[C@H]([C@@H](O)[C@@H]1O)[C@@]1(C)CC(=O)C(O)=C(C)[C@@H]1C[C@H]3OC(=O)[C@H](OC(=O)/C=C(\C)C(C)C)[C@@H]24 [Bruceantin, reference compound] | – | 25 | 7 | – | – | – | – | – | 5 | –
CCNC(=O)c1noc(-c2cc(C(C)C)c(O)cc2O)c1-c1ccc(CN2CCOCC2)cc1 [Luminespib] | 29 | 11 | 40 | 38 | – | – | – | – | – | –

Compound | EC50 [1, 5] [nM] | CC50 at 72 h [2] [nM] | EC50 (P. falciparum Dd2-HLH [3]; [6]) [nM] | EC50 (P. falciparum Dd2-HLH [4]; [7]) [nM] | EC50 [1, 8] [nM] | EC50 (P. falciparum Dd2-HLH [3]; [9]) [nM] | EC50 (P. falciparum Dd2-HLH [4]; [10]) [nM] | EC50 (P. falciparum Dd2-HLH [4]; Plasmodium falciparum, DD2, read-out: EC50 (antiplasmodial, quoted in discussion from Supplementary Table 1)) [nM] | EC50 (P. falciparum Dd2-HLH [4]; Plasmodium falciparum, DD2, Hec50, 48 h, read-out: Blood stage 48 h EC50) [nM] | EC50 ([1]; Plasmodium berghei, HepG2, 48 h) [nM]
C/C=C/C[C@@H](C)C(=O)[C@H]1C(=O)N[C@@H](C(C)C)C(=O)N(C)CC(=O)N(C)[C@@H](CC(C)C)C(=O)N[C@@H](C(C)C)C(=O)N(C)[C@@H](CC(C)C)C(=O)N[C@@H](C)C(=O)N[C@H](C)C(=O)N(C)[C@@H](CC(C)C)C(=O)N(C)[C@@H](CC(C)C)C(=O)N(C)[C@@H](C(C)C)C(=O)N1C [Valspodar] | 3 | > 9950 | 370 | 307 | – | – | – | – | – | –
C=C[C@H]1C[N@@]2CC[C@H]1C[C@@H]2[C@@H](O)c1ccnc2ccc(OC)cc12 [Quinidine] | > 10000 | > 9950 | 84 | 41 | – | – | – | – | – | –
COc1cc2c(Oc3ccc(NC(=O)C4(C(=O)Nc5ccc(F)cc5)CC4)cc3F)ccnc2cc1OCCCN1CCOCC1 [Foretinib] | 6050 | 2370 | 859 | 139 | – | – | – | – | – | –
CO[C@@H]1[C@H](O)C[C@@H](O[C@@H]2C[C@H](Oc3cc4cc5c(c(O)c4c(O)c3C)C(=O)[C@@H](O[C@H]3C[C@@H](O[C@H]4C[C@@H](O[C@H]6C[C@](C)(O)[C@@H](OC(C)=O)[C@H](C)O6)[C@H](O)[C@@H](C)O4)[C@H](O)[C@@H](C)O3)[C@H]([C@H](OC)C(=O)[C@@H](O)[C@@H](C)O)C5)O[C@H](C)[C@@H]2OC(C)=O)O[C@@H]1C [Chromomycin A3] | 30 | – | 48 | 31 | – | – | – | – | – | –
COCCN1CCN(Cc2ccc(-c3n[nH]c4c3C(=O)c3c(NC(=O)NN5CCOCC5)cccc3-4)cc2)CC1 [RGB-286638] | 87 | 58 | 300 | 138 | – | – | – | – | – | –
CO[C@@H]1[C@H](N(C)C(=O)c2ccccc2)C[C@H]2O[C@]1(C)n1c3ccccc3c3c4c(c5c6ccccc6n2c5c31)C(=O)NC4 [Midostaurin] | 3600 | > 9950 | – | 86 | – | – | – | – | – | –
COc1ccc(CCN2CCC(Nc3nc4ccccc4n3Cc3ccc(F)cc3)CC2)cc1 [Astemizole] | – | > 9950 | – | – | – | – | – | – | – | –
CN(C)c1ccc(C(=C2C=CC(=[N+](C)C)C=C2)c2ccc(N(C)C)cc2)cc1 [Gentian violet] | 214 | 136 | 456 | 104 | – | – | – | – | – | –
CNCCCN1c2ccccc2CCc2ccccc21 [Desipramine] | 3330 | > 9950 | 622 | 238 | – | – | – | – | – | –
COc1ccc(C(=O)c2cn(C(C)C)c3ncnc(N)c23)cc1NC(=O)Nc1ccc(Cl)cc1Cl [CE-245677] | 3330 | > 9950 | 810 | 619 | – | – | – | – | – | –
CC[C@]1(O)C[C@@H]2CN(CCc3c([nH]c4ccccc34)[C@@](C(=O)OC)(c3cc4c(cc3OC)N(C)[C@H]3[C@@](O)(C(=O)OC)[C@H](OC(C)=O)[C@]5(CC)C=CCN6CC[C@]43[C@@H]65)C2)C1 [Vinblastine sulfate] | 1100 | 102 | 24 | 29 | – | – | – | – | – | –
O=C(Nc1c[nH]nc1-c1nc2ccc(CN3CCOCC3)cc2[nH]1)NC1CC1 [AT-9283] | 569 | – | 864 | 129 | – | – | – | – | – | –
C=CCn1c(=O)c2cnc(Nc3ccc(N4CCN(C)CC4)cc3)nc2n1-c1cccc(C(C)(C)O)n1 [MK-1775] | 6100 | 310 | 681 | 595 | – | – | – | – | – | –
CNCCCC1c2ccccc2C=Cc2ccccc21 [Protriptyline hydrochloride] | – | > 9950 | 959 | 430 | – | – | – | – | – | > 10000
Cc1c(-c2ccc(O)cc2)n(Cc2ccc(OCCN3CCCCCC3)cc2)c2ccc(O)cc12 [Bazedoxifene Acetate] | 5560 | 3040 | 636 | 192 | – | – | – | – | – | –
C[C@@H](Oc1ccc2[nH]nc(/C=C/c3cnn(CCO)c3)c2c1)c1c(Cl)cncc1Cl [LY-2874455] | 2360 | 875 | 733 | 512 | – | – | – | – | – | –
O=C(/C=C/c1cccc(S(=O)(=O)Nc2ccccc2)c1)NO [Belinostat] | 1830 | 1290 | 188 | 90 | – | – | – | – | – | –
CCc1cc2c(cc1N1CCC(N3CCOCC3)CC1)C(C)(C)c1[nH]c3cc(C#N)ccc3c1C2=O [Alectinib Hydrochloride] | 152 | 797 | 926 | 907 | – | – | – | – | – | –
C/C1=C/C[C@@H](/C(C)=C/c2csc(C)n2)OC(=O)C[C@H](O)C(C)(C)C(=O)[C@H](C)[C@@H](O)[C@@H](C)CCC1 [Desoxyepothilone B] | 986 | – | 76 | 44 | – | – | – | – | – | –
Oligomycin A | – | – | – | – | 578 | 168 | 57 | – | – | –
